Holding throughout (assay): Post-emergence efficacy, Method A
What all share (type): in vivo

The test system of experiment [1] is Euphorbia heterophylla (EPHHL). The settings on record: Euphorbia heterophylla, post-emergence, 312 h; Application rate 500 g/Ha; evaluated after 13 days; 100=total damage to plant, 0=no damage to plant; read-out: Control of weed species after post-emergence application, EPHHL. As to the method:
(§1) Seeds of a variety of test species were sown in standard soil in pots. After cultivation for 14 days (post-emergence) under controlled conditions in a glasshouse (at 24/16° C., day/night; 14 hours light; 65% humidity), the plants were sprayed with an aqueous spray solution derived from the dissolution of the technical active ingredient formula (I) in a small amount of acetone and a special solvent and emulsifier mixture referred to as IF50 (11.12% Emulsogen EL360 TM+44.44% N-methylpyrrolidone+44.44% Dowanol DPM glycol ether), to create a 50 g/I solution which was then diluted to required concentration using 0.25% or 1% Empicol ESC70 (Sodium lauryl ether sulphate)+1% ammonium sulphate as diluent. The test plants were then grown in a glasshouse under controlled conditions (at 24/16° C., day/night; 14 hours light; 65% humidity) and watered twice daily. After 13 days the test was evaluated (100=total damage to plant; 0=no damage to plant).
(§2) Ipomoea hederacea (IPOHE), Euphorbia heterophylla (EPHHL), Chenopodium album (CHEAL), Amaranthus palmeri (AMAPA), Lolium perenne (LOLPE), Digitaria sanguinalis (DIGSA), Eleusine indica (ELEIN), Echinochloa crus-galli (ECHCG), Setaria faberi (SETFA)

The subject of a further experiment is Lolium perenne (LOLPE). Conditions: Lolium perenne, post-emergence, 312 h, evaluated after 13 days. The method, then:
as §1, §2

The next experiment concerns Eleusine indica (ELEIN). The settings on record: Eleusine indica, post-emergence, 312 h, evaluated after 13 days. As to the method:
as §1, §2

Experiment [2] has as its system Echinochloa crus-galli (ECHCG). Conditions: Echinochloa crus-galli, post-emergence, 312 h, evaluated after 13 days. As to the method:
as §1, §2

The test system of experiment [3] is Ipomoea hederacea (IPOHE). Conditions: Ipomoea hederacea, post-emergence, 312 h, evaluated after 13 days. The method, then: as §1, §2
For experiment [4], the system named is Digitaria sanguinalis (DIGSA). The settings on record: Digitaria sanguinalis, post-emergence, 312 h, evaluated after 13 days. The method, then: as §1, §2
For the next experiment, the system named is Setaria faberi (SETFA). Conditions: Setaria faberi, post-emergence, 312 h, evaluated after 13 days. The method, then: as §1, §2
The subject of experiment [5] is Chenopodium album (CHEAL). The settings on record: Chenopodium album, post-emergence, 312 h, evaluated after 13 days. The method, then: as §1, §2
For experiment [6], the system named is Amaranthus palmeri (AMAPA). The settings on record: Amaranthus palmeri, post-emergence, 312 h; Application Rate 500 g/Ha; evaluated after 13 days; Method A; read-out: Control of weed species after post-emergence application, AMAPA (100=total damage to plant; 0=no damage to plant). As to the method: as §1, §2
[7] abbreviates: Application rate 500 g/Ha, 100=total damage to plant, 0=no damage to plant, read-out: Control of weed species after post-emergence application, LOLPE.
Setting [8] is: Application rate 500 g/Ha, 100=total damage to plant, 0=no damage to plant, read-out: Control of weed species after post-emergence application, ELEIN.
[9] abbreviates: Application rate 500 g/Ha, 100=total damage to plant, 0=no damage to plant, read-out: Control of weed species after post-emergence application, ECHCG.
[10] abbreviates: Application rate 500 g/Ha, 100=total damage to plant, 0=no damage to plant, read-out: Control of weed species after post-emergence application, IPOHE.
[11] abbreviates: Application rate 500 g/Ha, 100=total damage to plant, 0=no damage to plant, read-out: Control of weed species after post-emergence application, DIGSA.
[12] abbreviates: Application rate 500 g/Ha, 100=total damage to plant, 0=no damage to plant, read-out: Control of weed species after post-emergence application, SETFA.
The mark [13] stands for this setting: Application rate 500 g/Ha, 100=total damage to plant, 0=no damage to plant, read-out: Control of weed species after post-emergence application, CHEAL.
[14] abbreviates: Application Rate 500 g/Ha, Method A, read-out: Control of weed species after post-emergence application, LOLPE (100=total damage to plant; 0=no damage to plant).
The mark [15] stands for this setting: Application Rate 500 g/Ha, Method A, read-out: Control of weed species after post-emergence application, ELEIN (100=total damage to plant; 0=no damage to plant).
Setting [16] is: Application Rate 500 g/Ha, Method A, read-out: Control of weed species after post-emergence application, ECHCG (100=total damage to plant; 0=no damage to plant).
The mark [17] stands for this setting: Application Rate 500 g/Ha, Method A, read-out: Control of weed species after post-emergence application, IPOHE (100=total damage to plant; 0=no damage to plant).
The mark [18] stands for this setting: Application Rate 500 g/Ha, Method A, read-out: Control of weed species after post-emergence application, DIGSA (100=total damage to plant; 0=no damage to plant).
Setting [19] is: Application Rate 500 g/Ha, Method A, read-out: Control of weed species after post-emergence application, SETFA (100=total damage to plant; 0=no damage to plant).
Setting [20] is: Application Rate 500 g/Ha, Method A, read-out: Control of weed species after post-emergence application, CHEAL (100=total damage to plant; 0=no damage to plant).

Here are results for 13 molecules from patent US20220125051A1, “PRE-HARVEST DESICCATION METHOD” (SYNGENTA CROP PROTECTION AG, priority 2019, published 2022).

Like-named read-outs stand apart in the source and are kept apart here.

For the molecule `Cc1nccc(-c2cc[n+](CCC(=O)O)nc2)n1` [Compound A55], the pest or weed control at 500 g/ha in experiment [1] amounted to 70%; with Lolium perenne (LOLPE) (setting [7]) it was 60%; in the experiment with Eleusine indica (ELEIN) (setting [8]), 100%; in [2] (setting [9]) it was 90%; in experiment [3] (setting [10]), 70%; in experiment [4] (setting [11]) it was 100%. The pest or weed control at 500 g/ha came to 100% in the experiment on Setaria faberi (SETFA) (setting [12]) and 80% in experiment [5] (setting [13]).
As for `O=S(=O)([O-])CC[n+]1ccc(-c2nccc(C(F)(F)F)n2)cn1` [Compound A23], the pest or weed control at 500 g/ha in experiment [1] stood at 90%; in the experiment with Lolium perenne (LOLPE) (setting [7]), 70%; in the experiment on Eleusine indica (ELEIN) (setting [8]), 100%; in experiment [2] (setting [9]), 70%; in [3] (setting [10]), 60%; in experiment [4] (setting [11]) it was 80%. The figures for the pest or weed control at 500 g/ha (with Setaria faberi (SETFA) (setting [12]); in experiment [5] (setting [13])) were 100% and 80%, respectively.
On to `O=C([O-])CC[n+]1ccc(-c2ncc(C3CC3)cn2)cn1` [Compound A51], for which the pest or weed control at 500 g/ha was 30% in experiment [1]; 60% in the experiment with Lolium perenne (LOLPE) (setting [7]); 90% in the experiment with Eleusine indica (ELEIN) (setting [8]); 60% in [2] (setting [9]); 20% in experiment [3] (setting [10]); 90% in experiment [4] (setting [11]). For the same molecule, the pest or weed control at 500 g/ha (in the experiment with Setaria faberi (SETFA) (setting [12]); in [5] (setting [13])) was 70% in each case.
As for `Cc1cnc(-c2cc[n+](CCS(=O)(=O)[O-])nc2)cn1` [Compound A61], the pest or weed control at 500 g/ha in [1] worked out at 90%; in the experiment with Lolium perenne (LOLPE) (setting [7]), 70%; in the experiment on Eleusine indica (ELEIN) (setting [8]), 100%; in [2] (setting [9]), 90%; in experiment [3] (setting [10]), 50%; in experiment [4] (setting [11]), 100%. In addition, the pest or weed control at 500 g/ha came out at 100% in the experiment on Setaria faberi (SETFA) (setting [12]) and 80% in [5] (setting [13]).
With `CN(C)c1cnc(-c2cc[n+](CCS(=O)(=O)[O-])nc2)nc1` [Compound A18], the pest or weed control at 500 g/ha was 10% in [1]; 10% in the experiment on Lolium perenne (LOLPE) (setting [7]); 60% with Eleusine indica (ELEIN) (setting [8]); 30% in experiment [2] (setting [9]); 10% in experiment [3] (setting [10]); 50% in experiment [4] (setting [11]). Besides, the pest or weed control at 500 g/ha in the experiment on Setaria faberi (SETFA) (setting [12]) is 40%; in experiment [5] (setting [13]), 0%.
In the case of `COc1nccc(-c2cc[n+](CCS(=O)(=O)[O-])nc2)n1` [Compound A60], the pest or weed control at 500 g/ha in experiment [1] was determined as 70%; with Lolium perenne (LOLPE) (setting [7]), 70%; in the experiment on Eleusine indica (ELEIN) (setting [8]), 100%; in experiment [2] (setting [9]) it was 90%; in experiment [3] (setting [10]), 60%; in experiment [4] (setting [11]) it was 100%. For the same molecule, the pest or weed control at 500 g/ha in the experiment on Setaria faberi (SETFA) (setting [12]) stood at 90%; in experiment [5] (setting [13]), 100%.
On to `O=C([O-])CC[n+]1ccc(-c2ncc(Cl)cn2)cn1` [Compound A43], for which the pest or weed control at 500 g/ha was 80% in experiment [1]; 20% in the experiment with Lolium perenne (LOLPE) (setting [7]); 100% in the experiment with Eleusine indica (ELEIN) (setting [8]); 70% in experiment [2] (setting [9]); 30% in experiment [3] (setting [10]); 90% in experiment [4] (setting [11]). The figures for the pest or weed control at 500 g/ha (in the experiment with Setaria faberi (SETFA) (setting [12]); in experiment [5] (setting [13])) were 100% and 90%, respectively.
`COc1cc(OC)nc(-c2cc[n+](CCS(=O)(=O)[O-])nc2)n1` [Compound A32]: the pest or weed control at 500 g/ha in experiment [1] was found to be 70%; with Lolium perenne (LOLPE) (setting [7]), 30%; in the experiment on Eleusine indica (ELEIN) (setting [8]), 100%; in [2] (setting [9]), 70%; in [3] (setting [10]) it was 40%; in experiment [4] (setting [11]), 90%. In addition, the pest or weed control at 500 g/ha was found to be 80% in the experiment on Setaria faberi (SETFA) (setting [12]) and 70% in experiment [5] (setting [13]).
Consider `O=c1cc(-c2cc[n+](CCS(=O)(=O)[O-])nc2)nc[nH]1` [Compound A57], for which the pest or weed control at 500 g/ha in experiment [1] came to 60%; with Lolium perenne (LOLPE) (setting [7]) it was 10%; in the experiment with Eleusine indica (ELEIN) (setting [8]), 40%; in experiment [2] (setting [9]) it was 40%; in [3] (setting [10]) it was 10%; in [4] (setting [11]), 80%. Also, the pest or weed control at 500 g/ha (in the experiment with Setaria faberi (SETFA) (setting [12]); in experiment [5] (setting [13])) was 60% throughout.
Regarding `O=S(=O)([O-])CCC[n+]1ccc(-c2ccnc(Cl)n2)cn1` [Compound A53], the pest or weed control at 500 g/ha in [1] stood at 80%; in the experiment with Lolium perenne (LOLPE) (setting [7]), 40%; in the experiment with Eleusine indica (ELEIN) (setting [8]) it was 70%; in experiment [2] (setting [9]), 70%; in experiment [3] (setting [10]) it was 70%; in experiment [4] (setting [11]) it was 80%. In addition, the pest or weed control at 500 g/ha with Setaria faberi (SETFA) (setting [12]) is 80%; in experiment [5] (setting [13]) it was 100%.
For `O=S(=O)([O-])CC(O)C[n+]1ccc(-c2ccncn2)cn1` (centres unmarked) [Compound A224], the pest or weed control at 500 g/ha in the experiment on Lolium perenne (LOLPE) (setting [14]) was found to be 40%; in the experiment on Eleusine indica (ELEIN) (setting [15]) it was 80%; in [6], 100%; in [2] (setting [16]) it was 40%; in [3] (setting [17]), 80%; in [4] (setting [18]), 80%. Further, the pest or weed control at 500 g/ha in the experiment on Setaria faberi (SETFA) (setting [19]) is 40%; in experiment [5] (setting [20]), 90%.
`O=P([O-])(O)C[n+]1ccc(-c2ncccn2)cn1` [Compound A205, hydroxy-[(4-pyrimidin-2-ylpyridazin-1-ium-1-yl)methyl]phosphinate]: the pest or weed control at 500 g/ha came out at 40% in the experiment on Lolium perenne (LOLPE) (setting [14]); 60% in the experiment with Eleusine indica (ELEIN) (setting [15]); 80% in experiment [6]; 60% in experiment [2] (setting [16]); 80% in experiment [3] (setting [17]); 80% in experiment [4] (setting [18]). Moreover, the pest or weed control at 500 g/ha in the experiment on Setaria faberi (SETFA) (setting [19]) is 80%; in experiment [5] (setting [20]) it was 60%.
With `COC(=O)c1ccc(C[n+]2ccc(-c3ncccn3)cn2)cc1` [Compound A229], the pest or weed control at 500 g/ha stood at 0% with Lolium perenne (LOLPE) (setting [14]); 0% in the experiment with Eleusine indica (ELEIN) (setting [15]); 10% in experiment [6]; 0% in experiment [2] (setting [16]); 10% in [3] (setting [17]); 20% in experiment [4] (setting [18]). For the same molecule, the pest or weed control at 500 g/ha in the experiment on Setaria faberi (SETFA) (setting [19]) turned out to be 10%; in experiment [5] (setting [20]), 0%.
